Patent publication US20240342150A1 (priority 2021, published 2024)
Read-outs that look alike come from different tables or passages of the source.

Key:
Vero E6 cells = conditions: for % viable cells: not infected Vero E6 cells
SARS-CoV-2 (Wuhan) = assay: microbe, parasite or virus in culture; type: cell-based; conditions: Severe acute respiratory syndrome coronavirus 2, Vero C1008

O=C(c1ccc(OCCN2CCCCC2)cc1)c1c(-c2ccc(O)cc2)sc2cc(O)ccc12 [Raloxifene, 1-[6-hydroxy-2-(4-hydroxyphenyl)benzo[b]thien-3-yl]-1-[4-[2-(1-piperidinyl)ethoxy]phenyl]methanone]
% viable cells (Vero E6 cells; Raloxifene 0.23 μM, 48 h): 100% | % viable cells (Vero E6 cells; Raloxifene 0.23 μM, 72 h): 102% | % viable cells (Vero E6 cells; Raloxifene 0.46 μM, 48 h): 95% | % viable cells (Vero E6 cells; Raloxifene 0.46 μM, 72 h): 95% | % viable cells (Vero E6 cells; Raloxifene 0.94 μM, 48 h): 95% | % viable cells (Vero E6 cells; Raloxifene 0.94 μM, 72 h): 96% | % viable cells (Vero E6 cells; Raloxifene 1.87 μM, 48 h): 99% | % viable cells (Vero E6 cells; Raloxifene 1.87 μM, 72 h): 97% | % viable cells (Vero E6 cells; Raloxifene 3.75 μM, 48 h): 93% | % viable cells (Vero E6 cells; Raloxifene 3.75 μM, 72 h): 96% | % viable cells (Vero E6 cells; Raloxifene 7.5 μM, 48 h): 92% | % viable cells (Vero E6 cells; Raloxifene 7.5 μM, 72 h): 97% | % viable cells (Vero E6 cells; Raloxifene 15 μM, 48 h): 86% | % viable cells (Vero E6 cells; Raloxifene 15 μM, 72 h): 76% | effect on cell viability (Vero E6 cells; Raloxifene 15 μM, crystal violet staining): reduced percentage of viable cells | effect on cell viability (Vero E6 cells; lower drug concentrations (7.5 to 0.23 μM)): No significant effect on cell viability | IC50 (SARS-CoV-2 (Wuhan)): 5.92 µM
